“Also recorded” adds a separate entry of the source.
Assays:
[1] = Absorption spectra / extinction coefficients; format: physicochemical; details: pro-fluorophores, PBS buffer containing 0.6 % glutaraldehyde at pH 7
Description: Absorption spectra were recorded in a 1-cm path length cuvette (Hellma, 104.002B-QS) on a SPECORD®-205 spectrometer from Analytik Jena.
The Extinction coefficients of the flourophores fluorescein, 5-carboxyfluorescein (5-CF), 5-carboxy Oregon Green™ (5-COG), 5-amido N-propyl Oregon Green (5-POG; Example 2) and 5-amido N-propyl fluorescein (5-PFA; Example 3) were measured in 0.1 M NaOH solution at pH 12.7.
The extinction coefficients of the pro-fluorophores 5-thiourea N-propyl fluorescein diacetate (5-PFDAT; Example 5), 5-propyl carboxylate fluorescein diacetate (5-PFDAE; Example 8), 5-amido N-propyl fluorescein diacetate (5-PFDA; Example 7), 5-carboxy Oregon Green diacetate (5-COGDA; Example 9), 5-amido N-propyl Oregon Green diacetate (5-POGDA; Example 6) and 5-amido N-propyl Oregon Green acetoxymethylester (5-POGAM; Example 10) were measured in PBS buffer containing 0.6 % glutaraldehyde at pH 7.

E. coli (EC18) [2] = experiment: Immunocapture of E. coli on beads and viability staining; format: cell-based, Escherichia coli; details: 10 µM, 30 min at 37 °C, Trypan Blue as contrast agent
From the text: In a further test, antibodies anti-EC18 pAB and pro-fluorophores (5-POGDA, 5-POGAM) were used to immobilize E. coli (EC18) on beads and to reveal the immobilized bacteria respectively. Immunocapture of E. coli on beads was done in order to concentrate the fluorescent signal in order to improve the detection of the viable cells. In these experiments, Protein G Sepharose beads coated with goat-anti-rabbit immunoglobulins were used.
Environmental E. coli (E18) were cultivated and re-suspended in PBS as previously described. E. coli (EC18) (100 µl of suspension at 1*10^9 bacteria/ml) were incubated with rabbit anti-EC18 polyclonal antibodies (anti-EC18 pAb) or pre-immune control rabbit serum without anti-EC18 antibodies (PI-pAb) (dilution 1/20) for 1 h at room temperature. This control rabbit serum (PI-pAb) was obtained from a non-immunized animal (Eurogentec). It was used as a negative control. Bacteria were washed three times in PBS by centrifugation at 10000 rpm for 3 min at room temperature.
Proteine G Sepharose 4 Fast Flow beads were washed three times in Milli-Q water and three times in PBS by centrifugation at 2000 rpm for 2 min at 4 °C. Then 10 µl of sedimented beads were incubated with 20 µg of secondary antibody goat-anti-rabbit immunoglobulin (Thermo Scientific Pierce, 31210) in 500 µl of PBS with 0.001% of NP40 for 1h at room temperature with gentle mixing on a wheel. […]

E. coli (EC18) [3] = experiment: Immunofluorescence and viability staining of E. coli; format: cell-based, Escherichia coli; details: 15 µM, 30 min at 37 °C, PBS containing 0.6 % glutaraldehyde
Description: Environmental E. Coli (EC18) were cultivated and re-suspended in PBS as described above. A dead bacterial suspension was also prepared as previously described. Dead or viable E. coli (EC18) (100 µl of suspension at 1.10^9 bacteria/ml) were incubated with rabbit anti-EC18 polyclonal antibodies (anti-EC18 pAb) (dilution 1/20) for 1 h at room temperature. This anti-EC 18 pAb was obtained from immunized rabbit with inactivated EC18 (Eurogentec). Bacteria were washed in PBS by centrifugation at 10000 rpm for 3 min at room temperature. Then, they were resuspended in 200 µl of PBS solution containing 0.6 % of glutaraldehyde with 15 µM of 5-POGDA and incubated for 30 min at 37 °C in the absence of light. Following several washes with PBS as described above, dead or viable E. coli (EC18) were re-suspended in 200 µl of PBS and incubated for 1 h at room temperature in the absence of light with AlexaFluor 568 labeled anti-rabbit immunoglobulin (dilution 1/1000) (Molecularprobes, A11036). Bacteria were washed twice and re-suspended in 100 µl of PBS. They were imaged with a Leica DM5500 microscope equipped with FITC and Cy3 filters. Images were collected with a 100x objective. The same experiment was repeated three times (n = 3).

SMILES	E (extinction coefficient) [1] [M⁻¹ cm⁻¹]	λAbs max [1] [nm]	fluorescence intensity of viable E. coli captured on beads compared with 5-CFDA (E. coli (EC18) [2])	green fluorescence of viable and dead E. coli (EC18) coated with antibodies (E. coli (EC18) [3])
CCCNC(=O)c1ccc2c(c1)C(=O)OC21c2cc(F)c(OCOC(C)=O)cc2Oc2cc(OCOC(C)=O)c(F)cc21 [Example 5-POGAM, 2',7'-difluoro-3-oxo-5-(propylcarbamoyl)-3H-spiroisobenzofuran-1,9'-xanthene-3',6'-diyl diacetoxymethyl ether]	11165 ± 334	302	still higher than the fluorescence intensity of E. coli stained with 5-CFDA	
CCCNC(=O)c1ccc2c(c1)C(=O)OC21c2cc(F)c(OC(C)=O)cc2Oc2cc(OC(C)=O)c(F)cc21 [Example 5-POGDA, 2',7'-difluoro-3-oxo-5-(propylcarbamoyl)-3H-spiro[isobenzofuran-1,9'-xanthene]-3',6'-diyl diacetate]	9784 ± 351	303	still higher than the fluorescence intensity of E. coli stained with 5-CFDA	bright green fluorescence; also recorded: viable cells have a green fluorescence and dead cells have no green fluorescence

Source: patent EP3050886A1, “Fluorescent dyes and dye precursors” (Bürkert Werke GmbH, priority 2015, dated 2016)
